Data on one compound can be found in patent publication US8933230B2, “Phosphorus-containing group-substituted quinoline, its preparation process, medical composition containing the compounds and application” (priority 2011, dated 2015).

One test concerns the target T1, c-KIT (Homo sapiens, UniProt P10721).
T1 construct: cell line M07e having endogenous high expression wild type c-KIT; endogenous in cells; host or cells: M07e
Description: c-KIT kinase phosphorylation in M07e cells (sandwich ELISA). It is filed as cell-based. Particulars: SCF 100 ng/mL 3 min, mean value of two testing results, read-out: IC50 values in the cell, c-KIT. As for the experimental part:
(§1) Inhibitory activity on the kinases in tumor cells: In this example, the compound prepared in Example 10, N1-[4-[[7-[[1-(diethoxyphosphorylmethyl)-4-piperidinyl]methoxyl]-6-methoxyl-4-quinolyl]oxyl]-3-fluorophenyl]-N1′-(4-fluorophenyl)cyclopropane-1,1-dicarboxamide is tested in tumor cells by ProQinase GmbH corporation (Breisacher Str. 117, D-79106 Freiburg, Germany. www.proqinase.com) for the inhibitory activity on the following kinases: c-KIT, c-MET, VEGFR2 and PDGFR-β. The test includes the following steps:
(§2) Firstly, the compound according to present invention is dissolved in dimethyl sulfoxide (DMSO) to prepare a 10 mM stock solution, which is diluted serially according to the concentration range shown in Table 6:
c-KIT kinase: in the test experiment of KIT kinase phosphorylation in the cells, human acute megakaryocytic leukemia cell line M07e having endogenous high expression wild type c-KIT is used. When these cells are stimulated with human stem cell factor (SCF), the tyrosine of KIT receptor kinases is self-phosphorylated. M07e cells are inoculated in RPMI containing 20% fetal calf serum (FCS) and 10 ng/ml GM-CSF in a multi-well cell culture dish. The compound of the invention is added to the cells after overnight starvation of serum and growth factor, then the cells are cultured in a medium without serum. […]
On the technique in general: In an ELISA, binding on a coated surface is turned into a signal by an enzyme label.

The next test addresses T2, PDGFR-β (Mus musculus, UniProt P05622).
T2 construct: cell line NIH3T3 having endogenous high expression wild type PDGFR-β; endogenous in cells; host or cells: NIH3T3
Nature of the test: PDGFR-β kinase phosphorylation in NIH3T3 cells (sandwich ELISA). It is filed as cell-based. Particulars: PDGF-BB 100 ng/mL 3 min, mean value of two testing results, read-out: IC50 values in the cell, PDGFR-β. As for the experimental part:
as §1, §2
PDGFR-β kinase: in the test experiment of PDGFR-beta kinase phosphorylation in the cells, mouse embryo fibroblast cell line NIH3T3 having endogenous high expression wild type PDGFR-β (wild-type PDGFR-β) is used. When these cells are simulated with mouse platelet-derived growth factor BB (PDGF-BB), it causes the tyrosine of PDGFR-beta receptor kinases self-phosphorylated. NIH3T3 cells are inoculated in DMEM culture solution containing 10% FCS in a multi-well cell culture dish. The compound of the invention is added to the cells after serum overnight starvation, then the cells are cultured in a medium without serum. […]

T1 sequence (P10721 26-976): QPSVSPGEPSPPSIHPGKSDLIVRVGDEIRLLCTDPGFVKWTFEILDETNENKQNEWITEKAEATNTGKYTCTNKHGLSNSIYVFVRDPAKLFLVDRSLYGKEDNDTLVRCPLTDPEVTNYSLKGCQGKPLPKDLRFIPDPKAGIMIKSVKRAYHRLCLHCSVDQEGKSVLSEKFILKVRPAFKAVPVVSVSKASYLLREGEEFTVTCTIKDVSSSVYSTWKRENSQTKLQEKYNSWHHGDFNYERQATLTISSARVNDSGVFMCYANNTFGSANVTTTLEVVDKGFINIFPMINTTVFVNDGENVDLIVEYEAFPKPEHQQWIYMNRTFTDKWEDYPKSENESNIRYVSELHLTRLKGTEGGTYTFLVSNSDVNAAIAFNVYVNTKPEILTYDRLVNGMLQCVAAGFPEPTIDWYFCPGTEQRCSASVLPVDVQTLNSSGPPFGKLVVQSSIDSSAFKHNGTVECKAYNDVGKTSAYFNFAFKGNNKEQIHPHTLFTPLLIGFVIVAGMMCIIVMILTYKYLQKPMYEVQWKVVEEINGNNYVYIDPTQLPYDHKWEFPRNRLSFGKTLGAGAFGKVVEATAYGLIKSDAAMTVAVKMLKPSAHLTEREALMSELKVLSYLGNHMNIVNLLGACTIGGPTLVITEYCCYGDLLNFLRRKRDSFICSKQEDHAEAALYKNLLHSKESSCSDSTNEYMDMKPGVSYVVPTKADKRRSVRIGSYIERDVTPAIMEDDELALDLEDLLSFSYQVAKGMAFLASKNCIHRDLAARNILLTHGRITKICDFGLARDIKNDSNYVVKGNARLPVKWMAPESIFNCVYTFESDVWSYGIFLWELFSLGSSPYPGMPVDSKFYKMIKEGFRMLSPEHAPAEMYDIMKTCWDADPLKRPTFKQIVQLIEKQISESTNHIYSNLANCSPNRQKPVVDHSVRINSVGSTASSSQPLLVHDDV
T2 sequence (P05622 32-1098): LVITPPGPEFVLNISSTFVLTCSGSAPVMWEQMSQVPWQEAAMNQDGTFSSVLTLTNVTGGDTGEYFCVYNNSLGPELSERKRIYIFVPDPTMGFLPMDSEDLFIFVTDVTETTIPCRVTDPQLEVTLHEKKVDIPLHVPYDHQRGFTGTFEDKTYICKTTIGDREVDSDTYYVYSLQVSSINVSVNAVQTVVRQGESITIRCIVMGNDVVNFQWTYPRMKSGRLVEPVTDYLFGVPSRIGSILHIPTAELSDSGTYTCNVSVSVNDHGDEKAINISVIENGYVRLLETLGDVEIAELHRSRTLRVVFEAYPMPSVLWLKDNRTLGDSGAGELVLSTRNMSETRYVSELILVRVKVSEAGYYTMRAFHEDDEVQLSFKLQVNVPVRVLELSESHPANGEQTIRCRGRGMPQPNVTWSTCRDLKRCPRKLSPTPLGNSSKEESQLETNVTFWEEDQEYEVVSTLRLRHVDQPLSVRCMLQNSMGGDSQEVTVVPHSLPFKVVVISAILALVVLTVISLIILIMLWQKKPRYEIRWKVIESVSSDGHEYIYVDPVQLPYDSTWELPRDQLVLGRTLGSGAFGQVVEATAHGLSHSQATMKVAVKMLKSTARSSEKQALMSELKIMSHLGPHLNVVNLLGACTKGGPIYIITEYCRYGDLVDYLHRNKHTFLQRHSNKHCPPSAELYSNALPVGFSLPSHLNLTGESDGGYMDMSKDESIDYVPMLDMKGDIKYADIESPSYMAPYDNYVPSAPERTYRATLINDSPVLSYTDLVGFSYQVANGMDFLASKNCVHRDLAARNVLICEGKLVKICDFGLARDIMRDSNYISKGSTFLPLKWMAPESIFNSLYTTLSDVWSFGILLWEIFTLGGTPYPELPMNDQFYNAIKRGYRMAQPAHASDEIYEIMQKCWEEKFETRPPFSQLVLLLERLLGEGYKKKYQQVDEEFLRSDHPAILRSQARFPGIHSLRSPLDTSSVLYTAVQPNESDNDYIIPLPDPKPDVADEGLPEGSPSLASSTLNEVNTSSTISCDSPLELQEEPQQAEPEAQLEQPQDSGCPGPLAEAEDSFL

A word on the IC50: it is the concentration that gives 50% inhibition. Turning to `CCOP(=O)(CN1CCC(COc2cc3nccc(Oc4ccc(NC(=O)C5(C(=O)Nc6ccc(F)cc6)CC5)cc4F)c3cc2OC)CC1)OCC` [Example 10, N1-[4-[[7-[[1-(diethoxyphosphorylmethyl)-4-piperidinyl]methoxyl]-6-methoxyl-4-quinolyl]oxyl]-3-fluorophenyl]-N1′-(4-fluorophenyl)cyclopropane-1,1-dicarboxamide], the IC50 was 27 nM on c-KIT and 13 nM on PDGFR-β.
